Experimental data from ChEMBL document CHEMBL5465560, “Selectivity Literature for EUbOPEN Chemogenomic Library” (2024).
Each block holds one compound with its values, some of them ahead of it.

Key:
[1] = system: Epidermal growth factor receptor (Homo sapiens), P00533 [UNDEFINED MUTATION]; experiment: Selectivity interaction (KinomeScan (DiscoverX)) EUB0000666a EGFR; details: at 10 µM
[2] = target: Glycogen synthase kinase-3 beta (Homo sapiens, UniProt P49841); experiment: Selectivity interaction (KinomeScan (DiscoverX)) EUB0000607a GSK3B; details: at 10 µM
Glycogen synthase kinase-3 beta, sequence (P49841 whole entry, looked up, canonical isoform): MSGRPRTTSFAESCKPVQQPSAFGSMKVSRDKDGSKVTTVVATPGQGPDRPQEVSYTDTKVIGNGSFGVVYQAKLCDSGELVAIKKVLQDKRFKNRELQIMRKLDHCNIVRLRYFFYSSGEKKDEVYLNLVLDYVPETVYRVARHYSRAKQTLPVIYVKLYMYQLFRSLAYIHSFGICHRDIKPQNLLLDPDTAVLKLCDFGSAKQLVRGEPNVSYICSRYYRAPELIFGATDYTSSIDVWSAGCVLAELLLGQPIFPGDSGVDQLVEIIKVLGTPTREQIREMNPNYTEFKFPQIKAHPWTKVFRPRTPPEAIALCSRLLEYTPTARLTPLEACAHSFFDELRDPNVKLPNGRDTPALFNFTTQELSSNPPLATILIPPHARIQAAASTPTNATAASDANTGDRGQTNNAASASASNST

[3] = system: Phosphatidylinositol 4,5-bisphosphate 3-kinase catalytic subunit alpha isoform (Homo sapiens), P42336 [E545A]; details: at 10 µM
[4] = target: Glutamate receptor ionotropic, NMDA 2B (Homo sapiens) (UniProt Q13224); experiment: Selectivity interaction (Panel of kinases, GPCRs, ion channels and transporters (enzymatic assay)) EUB0000266bCl GRIN2B
Glutamate receptor ionotropic, NMDA 2B (Homo sapiens), sequence (Q13224 27-1484 limits assumed): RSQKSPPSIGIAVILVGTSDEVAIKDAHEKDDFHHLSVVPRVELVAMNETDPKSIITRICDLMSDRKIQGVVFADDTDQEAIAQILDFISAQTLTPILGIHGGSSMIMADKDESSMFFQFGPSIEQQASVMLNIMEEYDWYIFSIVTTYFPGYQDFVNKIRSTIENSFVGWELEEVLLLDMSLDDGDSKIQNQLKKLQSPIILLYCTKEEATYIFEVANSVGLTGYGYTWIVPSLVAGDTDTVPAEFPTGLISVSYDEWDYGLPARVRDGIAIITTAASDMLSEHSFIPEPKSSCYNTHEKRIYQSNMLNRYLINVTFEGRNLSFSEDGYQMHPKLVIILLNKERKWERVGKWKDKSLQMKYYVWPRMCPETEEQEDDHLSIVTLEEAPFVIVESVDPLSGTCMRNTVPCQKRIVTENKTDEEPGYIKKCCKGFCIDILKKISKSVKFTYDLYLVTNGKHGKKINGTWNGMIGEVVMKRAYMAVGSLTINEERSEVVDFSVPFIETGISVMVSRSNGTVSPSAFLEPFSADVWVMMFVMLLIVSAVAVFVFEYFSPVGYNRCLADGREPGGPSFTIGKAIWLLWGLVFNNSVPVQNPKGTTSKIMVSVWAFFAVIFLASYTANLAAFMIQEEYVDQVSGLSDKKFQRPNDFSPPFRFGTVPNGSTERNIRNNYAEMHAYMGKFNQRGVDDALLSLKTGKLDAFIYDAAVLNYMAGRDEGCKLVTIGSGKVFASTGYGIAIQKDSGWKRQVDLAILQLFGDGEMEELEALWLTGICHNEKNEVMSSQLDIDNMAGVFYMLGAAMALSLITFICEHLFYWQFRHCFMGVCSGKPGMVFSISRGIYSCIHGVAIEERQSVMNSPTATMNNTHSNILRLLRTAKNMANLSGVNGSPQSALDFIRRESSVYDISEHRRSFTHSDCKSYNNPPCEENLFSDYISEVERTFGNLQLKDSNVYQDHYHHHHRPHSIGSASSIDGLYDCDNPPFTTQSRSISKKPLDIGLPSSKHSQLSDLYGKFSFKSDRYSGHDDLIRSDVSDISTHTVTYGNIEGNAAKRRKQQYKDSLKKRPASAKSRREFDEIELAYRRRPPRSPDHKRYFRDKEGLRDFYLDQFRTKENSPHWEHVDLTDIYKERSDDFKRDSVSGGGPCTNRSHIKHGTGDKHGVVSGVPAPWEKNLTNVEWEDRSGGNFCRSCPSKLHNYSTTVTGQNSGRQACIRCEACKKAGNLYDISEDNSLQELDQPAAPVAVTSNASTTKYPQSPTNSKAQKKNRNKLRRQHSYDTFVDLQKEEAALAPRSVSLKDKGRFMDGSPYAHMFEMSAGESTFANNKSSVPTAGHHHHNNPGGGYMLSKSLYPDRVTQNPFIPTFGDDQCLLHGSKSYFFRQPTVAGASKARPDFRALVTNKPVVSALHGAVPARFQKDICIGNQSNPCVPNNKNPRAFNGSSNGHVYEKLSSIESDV

[5] = target: Ribosomal protein S6 kinase alpha-6 (Homo sapiens, UniProt Q9UK32); details: at 10 µM
[6] = target: T1, Aurora kinase A (Homo sapiens) (UniProt O14965); experiment: Selectivity interaction (ActivX KiNativ screen (kinase selectivity in THP-1 cell lysates)) EUB0000639a STK6; assay type: subcellular; details: lysate, at 0.01 µM
T1 sequence (whole entry): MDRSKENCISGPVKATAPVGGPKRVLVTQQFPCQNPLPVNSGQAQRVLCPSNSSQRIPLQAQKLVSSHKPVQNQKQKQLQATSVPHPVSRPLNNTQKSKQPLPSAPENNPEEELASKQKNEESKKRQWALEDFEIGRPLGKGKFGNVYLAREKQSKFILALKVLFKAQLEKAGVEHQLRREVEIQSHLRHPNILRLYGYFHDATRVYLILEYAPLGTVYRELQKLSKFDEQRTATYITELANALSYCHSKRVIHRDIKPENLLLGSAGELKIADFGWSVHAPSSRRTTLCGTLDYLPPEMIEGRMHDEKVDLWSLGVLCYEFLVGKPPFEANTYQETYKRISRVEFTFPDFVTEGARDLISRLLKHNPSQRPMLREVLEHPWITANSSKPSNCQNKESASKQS

[7] = target: Serine/threonine-protein kinase MARK2 (Homo sapiens) (UniProt Q7KZI7); experiment: Selectivity interaction (ActivX KiNativ screen (kinase selectivity in THP-1 cell lysates)) EUB0000639a MARK2; assay type: subcellular; details: lysate
Serine/threonine-protein kinase MARK2 (Homo sapiens), sequence (Q7KZI7 whole entry): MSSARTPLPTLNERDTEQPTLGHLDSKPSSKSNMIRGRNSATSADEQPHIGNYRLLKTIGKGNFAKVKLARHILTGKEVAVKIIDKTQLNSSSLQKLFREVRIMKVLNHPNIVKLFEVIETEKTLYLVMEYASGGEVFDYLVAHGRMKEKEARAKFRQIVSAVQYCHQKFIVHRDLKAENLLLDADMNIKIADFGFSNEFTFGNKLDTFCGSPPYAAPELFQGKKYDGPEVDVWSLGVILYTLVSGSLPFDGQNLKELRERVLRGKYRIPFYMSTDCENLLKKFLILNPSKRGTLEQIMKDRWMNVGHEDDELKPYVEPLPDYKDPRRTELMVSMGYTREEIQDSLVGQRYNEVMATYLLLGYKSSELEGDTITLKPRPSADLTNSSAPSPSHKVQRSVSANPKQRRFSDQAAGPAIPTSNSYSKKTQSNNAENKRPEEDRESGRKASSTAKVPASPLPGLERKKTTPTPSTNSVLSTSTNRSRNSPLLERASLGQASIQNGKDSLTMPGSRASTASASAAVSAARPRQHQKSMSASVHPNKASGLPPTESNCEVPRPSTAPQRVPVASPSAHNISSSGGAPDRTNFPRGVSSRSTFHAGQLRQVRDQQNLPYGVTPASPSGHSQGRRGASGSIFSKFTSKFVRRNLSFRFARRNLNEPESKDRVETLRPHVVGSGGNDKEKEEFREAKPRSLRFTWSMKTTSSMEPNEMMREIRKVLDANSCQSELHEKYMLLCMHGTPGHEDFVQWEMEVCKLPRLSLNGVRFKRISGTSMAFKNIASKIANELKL

[8] = target: T2, Cyclin-dependent kinase 11A (Homo sapiens) (UniProt Q9UQ88); experiment: Selectivity interaction (KinomeScan (DiscoverX)) EUB0000655a CDK11A; details: at 10 µM
T2 sequence (whole entry): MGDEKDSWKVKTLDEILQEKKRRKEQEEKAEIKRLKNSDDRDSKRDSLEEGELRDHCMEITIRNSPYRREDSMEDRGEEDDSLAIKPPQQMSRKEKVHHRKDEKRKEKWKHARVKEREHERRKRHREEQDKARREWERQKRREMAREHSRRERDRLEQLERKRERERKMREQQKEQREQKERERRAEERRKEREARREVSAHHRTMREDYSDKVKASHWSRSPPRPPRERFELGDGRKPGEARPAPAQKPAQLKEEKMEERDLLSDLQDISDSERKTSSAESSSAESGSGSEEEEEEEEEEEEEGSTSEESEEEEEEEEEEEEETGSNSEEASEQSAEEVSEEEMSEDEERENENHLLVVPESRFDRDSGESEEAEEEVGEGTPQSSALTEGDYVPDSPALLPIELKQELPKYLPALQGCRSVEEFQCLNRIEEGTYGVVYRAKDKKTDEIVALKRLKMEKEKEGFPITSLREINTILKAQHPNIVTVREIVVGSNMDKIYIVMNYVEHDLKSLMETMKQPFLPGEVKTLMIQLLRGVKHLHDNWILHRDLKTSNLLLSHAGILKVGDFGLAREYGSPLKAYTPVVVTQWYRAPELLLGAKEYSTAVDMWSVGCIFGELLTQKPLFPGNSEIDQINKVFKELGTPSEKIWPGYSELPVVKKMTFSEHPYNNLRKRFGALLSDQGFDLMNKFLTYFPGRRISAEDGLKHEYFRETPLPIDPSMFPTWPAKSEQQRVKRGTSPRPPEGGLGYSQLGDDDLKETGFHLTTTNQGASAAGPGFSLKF

[9] = target: T3, Serine/threonine-protein kinase NLK (Homo sapiens) (UniProt Q9UBE8); experiment: Selectivity interaction (KinomeScan (DiscoverX)) EUB0000655a NLK; details: at 10 µM
T3 sequence (whole entry): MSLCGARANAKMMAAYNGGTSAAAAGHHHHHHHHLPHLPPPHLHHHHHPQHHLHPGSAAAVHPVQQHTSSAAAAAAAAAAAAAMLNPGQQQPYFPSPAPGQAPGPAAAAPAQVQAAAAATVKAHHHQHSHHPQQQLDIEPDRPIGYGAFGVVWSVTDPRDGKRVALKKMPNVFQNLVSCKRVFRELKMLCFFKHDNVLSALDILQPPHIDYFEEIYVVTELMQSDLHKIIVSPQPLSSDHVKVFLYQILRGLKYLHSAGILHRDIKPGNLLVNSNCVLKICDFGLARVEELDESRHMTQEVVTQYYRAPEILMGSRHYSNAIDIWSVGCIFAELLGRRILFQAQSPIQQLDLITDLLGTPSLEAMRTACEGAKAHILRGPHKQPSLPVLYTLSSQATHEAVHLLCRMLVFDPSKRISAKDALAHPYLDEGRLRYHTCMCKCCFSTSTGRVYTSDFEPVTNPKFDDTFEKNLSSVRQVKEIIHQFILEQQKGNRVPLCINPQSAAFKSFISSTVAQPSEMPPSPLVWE

[10] = target: Non-receptor tyrosine-protein kinase TYK2 (Homo sapiens, UniProt P29597); experiment: Selectivity interaction (KinomeScan (DiscoverX)) EUB0001079a TYK2; details: at 1 µM
Non-receptor tyrosine-protein kinase TYK2, sequence (P29597 whole entry): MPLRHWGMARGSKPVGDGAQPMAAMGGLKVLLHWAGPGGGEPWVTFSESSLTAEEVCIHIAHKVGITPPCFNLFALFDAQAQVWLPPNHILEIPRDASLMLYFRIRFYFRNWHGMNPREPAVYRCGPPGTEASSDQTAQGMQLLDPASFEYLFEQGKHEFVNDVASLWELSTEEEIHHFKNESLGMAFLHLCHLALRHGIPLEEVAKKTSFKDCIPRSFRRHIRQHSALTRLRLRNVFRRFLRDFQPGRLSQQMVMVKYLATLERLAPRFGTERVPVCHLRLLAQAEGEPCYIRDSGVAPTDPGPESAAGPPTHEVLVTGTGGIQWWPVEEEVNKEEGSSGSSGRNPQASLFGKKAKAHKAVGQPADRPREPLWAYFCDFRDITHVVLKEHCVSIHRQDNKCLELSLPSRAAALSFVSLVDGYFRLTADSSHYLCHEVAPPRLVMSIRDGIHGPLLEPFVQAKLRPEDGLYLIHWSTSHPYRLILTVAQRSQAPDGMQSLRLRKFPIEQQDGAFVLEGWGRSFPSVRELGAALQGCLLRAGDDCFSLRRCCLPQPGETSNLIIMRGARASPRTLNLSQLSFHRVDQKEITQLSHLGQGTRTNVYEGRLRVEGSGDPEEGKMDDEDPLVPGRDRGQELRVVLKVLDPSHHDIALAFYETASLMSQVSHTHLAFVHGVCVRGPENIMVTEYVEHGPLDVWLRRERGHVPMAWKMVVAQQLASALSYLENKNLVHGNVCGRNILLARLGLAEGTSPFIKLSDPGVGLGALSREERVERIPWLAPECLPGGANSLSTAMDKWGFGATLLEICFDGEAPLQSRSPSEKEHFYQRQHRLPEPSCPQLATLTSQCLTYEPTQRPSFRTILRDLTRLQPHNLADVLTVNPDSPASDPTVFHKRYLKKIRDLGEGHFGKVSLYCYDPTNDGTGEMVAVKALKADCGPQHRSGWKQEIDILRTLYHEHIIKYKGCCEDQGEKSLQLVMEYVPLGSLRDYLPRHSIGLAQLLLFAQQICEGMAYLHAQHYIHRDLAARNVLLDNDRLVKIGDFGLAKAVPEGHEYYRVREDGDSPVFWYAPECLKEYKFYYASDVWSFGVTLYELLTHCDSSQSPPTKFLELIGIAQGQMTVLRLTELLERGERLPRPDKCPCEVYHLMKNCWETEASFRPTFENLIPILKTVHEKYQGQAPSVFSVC

Epidermal growth factor receptor (Homo sapiens), P00533 [UNDEFINED MUTATION], sequence (P00533 whole entry, looked up, change not shown): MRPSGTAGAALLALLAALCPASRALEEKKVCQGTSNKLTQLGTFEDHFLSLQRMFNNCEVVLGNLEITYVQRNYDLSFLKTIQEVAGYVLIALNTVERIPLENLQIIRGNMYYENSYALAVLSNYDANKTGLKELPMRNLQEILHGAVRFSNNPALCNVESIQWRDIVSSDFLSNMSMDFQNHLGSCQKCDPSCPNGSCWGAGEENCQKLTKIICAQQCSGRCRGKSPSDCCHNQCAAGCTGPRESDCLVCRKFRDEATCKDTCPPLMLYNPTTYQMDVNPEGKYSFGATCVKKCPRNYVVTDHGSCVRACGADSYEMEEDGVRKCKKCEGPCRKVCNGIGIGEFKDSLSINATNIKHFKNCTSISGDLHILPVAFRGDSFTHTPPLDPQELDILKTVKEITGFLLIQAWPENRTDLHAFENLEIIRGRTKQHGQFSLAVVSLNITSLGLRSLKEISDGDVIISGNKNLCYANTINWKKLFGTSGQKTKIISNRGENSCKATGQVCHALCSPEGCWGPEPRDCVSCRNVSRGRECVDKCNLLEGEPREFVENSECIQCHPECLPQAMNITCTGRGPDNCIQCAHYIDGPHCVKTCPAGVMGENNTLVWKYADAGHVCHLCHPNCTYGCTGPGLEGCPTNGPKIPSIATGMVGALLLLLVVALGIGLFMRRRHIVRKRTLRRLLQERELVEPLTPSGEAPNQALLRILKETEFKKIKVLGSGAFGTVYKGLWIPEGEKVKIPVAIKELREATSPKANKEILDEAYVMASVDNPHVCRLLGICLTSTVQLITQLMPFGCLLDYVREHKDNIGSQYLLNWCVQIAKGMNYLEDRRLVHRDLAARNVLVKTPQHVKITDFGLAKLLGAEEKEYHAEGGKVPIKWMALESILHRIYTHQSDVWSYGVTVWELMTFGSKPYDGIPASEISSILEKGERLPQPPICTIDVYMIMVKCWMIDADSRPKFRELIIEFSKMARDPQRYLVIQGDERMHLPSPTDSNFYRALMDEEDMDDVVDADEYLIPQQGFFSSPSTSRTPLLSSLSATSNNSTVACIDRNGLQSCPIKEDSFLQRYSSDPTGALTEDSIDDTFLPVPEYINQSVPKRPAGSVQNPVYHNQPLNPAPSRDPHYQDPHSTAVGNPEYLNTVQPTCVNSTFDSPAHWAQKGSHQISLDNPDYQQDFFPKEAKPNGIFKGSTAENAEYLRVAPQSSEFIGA

Compound: O=C(NOC[C@H](O)CO)c1ccc(F)c(F)c1Nc1ccc(I)cc1F
% of control [1]: 51%

Compound: CNC(=O)Nc1ccc(-c2nc(N3CC4CCC(C3)O4)c3cnn(C4CCC5(CC4)OCCO5)c3n2)cc1
% of control [2]: 69%
% of control [3]: 8.8%

pXC50 [4]: < 4.3 M
Compound: CCn1c(-c2nc3cc(C(=O)N4CCCC(N)C4)ccc3n2C)cc2ccccc21 (centres undefined)

% of control [5]: 100%
Compound: CCN(CC)CCCCNc1ncc2cc(-c3cc(OC)cc(OC)c3)c(NC(=O)NC(C)(C)C)nc2n1

% of inhibition [6]: 4.9%
% of inhibition ([7]; at 0.01 µM): -8%
% of inhibition ([7]; at 0.04 µM): 6.9%
% of inhibition ([7]; at 0.2 µM): 9.9%
% of inhibition ([7]; at 1 µM): 30%
% of inhibition ([7]; at 5 µM): 56.3%
Compound: CC[C@@H]1[C@H](F)C(=O)N[C@@H]1COc1nccc2cc(C(N)=O)c(OC)cc12 [ZIMLOVISERTIB]

Compound: CN(C)CCOc1ccc(-c2nc(-c3ccncc3)c(-c3ccc4c(c3)CC/C4=N\O)[nH]2)cc1
% of control [8]: 86%
% of control [9]: 90%

Compound: Nc1cnc(N2CCc3cc(S(=O)(=O)Nc4c(F)cc(Cl)cc4F)cc(N4CCCC4=O)c32)nc1 [TP-020n]
% of control [10]: 100%
